# Data from PubChem BioAssay (NCI).
#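 Cells were grown in 96-well plates and exposed to each compound for 48 hours at five concentrations; endpoints were interpolated linearly between bracketing concentrations, or set to the highest concentration if not reached. At the TGI there is no net growth.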
# Columns and labels:
# Test in all cases: DTP human tumour cell line panel, 48 h
# A498 renal = test system: A498 renal
# A549 NSCLC = test system: A549 NSCLC
# ACHN renal = test system: ACHN renal
# BT-549 breast = test system: BT-549 breast
# CCRF-CEM leukemia = test system: CCRF-CEM leukemia
# DU-145 prostate = test system: DU-145 prostate
# EKVX NSCLC = test system: EKVX NSCLC
# HCC-2998 colon = test system: HCC-2998 colon
# HCT-116 colon = test system: HCT-116 colon
# HCT-15 colon = test system: HCT-15 colon
# HOP-92 NSCLC = test system: HOP-92 NSCLC
# HT29 colon = test system: HT29 colon
# IGROV1 ovarian = test system: IGROV1 ovarian
# K-562 leukemia = test system: K-562 leukemia
# KM12 colon = test system: KM12 colon
# LOX IMVI melanoma = test system: LOX IMVI melanoma
# M14 melanoma = test system: M14 melanoma
# MALME-3M melanoma = test system: MALME-3M melanoma
# MDA-MB-231 breast = test system: MDA-MB-231 breast
# MDA-MB-435 = test system: MDA-MB-435
# MDA-N = test system: MDA-N
# MOLT-4 leukemia = test system: MOLT-4 leukemia
# NCI-H226 lung = test system: NCI-H226 lung
# NCI-H23 lung = test system: NCI-H23 lung
# NCI-H460 lung = test system: NCI-H460 lung
# NCI-H522 lung = test system: NCI-H522 lung
# NCI/ADR-RES ovarian = test system: NCI/ADR-RES ovarian
# OVCAR-3 ovarian = test system: OVCAR-3 ovarian
# OVCAR-4 ovarian = test system: OVCAR-4 ovarian
# OVCAR-5 ovarian = test system: OVCAR-5 ovarian
# OVCAR-8 ovarian = test system: OVCAR-8 ovarian
# RPMI-8226 leukemia = test system: RPMI-8226 leukemia
# RXF 393 renal = test system: RXF 393 renal
# SF-268 CNS = test system: SF-268 CNS
# SF-295 CNS = test system: SF-295 CNS
# SF-539 CNS = test system: SF-539 CNS
# SK-MEL-2 melanoma = test system: SK-MEL-2 melanoma
# SK-MEL-28 melanoma = test system: SK-MEL-28 melanoma
# SN12C renal = test system: SN12C renal
# SNB-19 CNS = test system: SNB-19 CNS
# SNB-75 CNS = test system: SNB-75 CNS
# T-47D breast = test system: T-47D breast
# TK-10 renal = test system: TK-10 renal
# U251 CNS = test system: U251 CNS
# UACC-257 melanoma = test system: UACC-257 melanoma
# UACC-62 melanoma = test system: UACC-62 melanoma
# UO-31 renal = test system: UO-31 renal
# 786-0 renal = test system: 786-0 renal
# CAKI-1 renal = test system: CAKI-1 renal
# COLO 205 colon = test system: COLO 205 colon
# HL-60(TB) leukemia = test system: HL-60(TB) leukemia
# HOP-62 NSCLC = test system: HOP-62 NSCLC
# MCF7 breast = test system: MCF7 breast
# PC-3 prostate = test system: PC-3 prostate
# SK-MEL-5 melanoma = test system: SK-MEL-5 melanoma
# SK-OV-3 ovarian = test system: SK-OV-3 ovarian
# SR leukemia = test system: SR leukemia
# SW-620 colon = test system: SW-620 colon
structure (smiles),measurement,setting,value
COc1cc2c(cc1OCCCCCN1C(=O)c3cccc4cccc(c34)C1=O)N=C[C@@H]1CCCN1C2=O,TGI,A498 renal,1.3 µM
same,TGI,A549 NSCLC,3.3 µM
same,TGI,ACHN renal,0.827 µM
same,TGI,BT-549 breast,0.855 µM
same,TGI,CCRF-CEM leukemia,0.0677 µM
same,TGI,DU-145 prostate,6.9 µM
same,TGI,EKVX NSCLC,1.85 µM
same,TGI,HCC-2998 colon,> 100 µM
same,TGI,HCT-116 colon,3.13 µM
same,TGI,HCT-15 colon,4.06 µM
same,TGI,HOP-92 NSCLC,0.747 µM
same,TGI,HT29 colon,1.5 µM
same,TGI,IGROV1 ovarian,0.535 µM
same,TGI,K-562 leukemia,> 100 µM
same,TGI,KM12 colon,0.391 µM
same,TGI,LOX IMVI melanoma,0.785 µM
same,TGI,M14 melanoma,0.349 µM
same,TGI,MALME-3M melanoma,0.364 µM
same,TGI,MDA-MB-231 breast,> 100 µM
same,TGI,MDA-MB-435,0.306 µM
same,TGI,MDA-N,0.331 µM
same,TGI,MOLT-4 leukemia,> 100 µM
same,TGI,NCI-H226 lung,0.574 µM
same,TGI,NCI-H23 lung,0.458 µM
same,TGI,NCI-H460 lung,> 100 µM
same,TGI,NCI-H522 lung,0.167 µM
same,TGI,NCI/ADR-RES ovarian,0.89 µM
same,TGI,OVCAR-3 ovarian,0.524 µM
same,TGI,OVCAR-4 ovarian,> 100 µM
same,TGI,OVCAR-5 ovarian,15.5 µM
same,TGI,OVCAR-8 ovarian,1.47 µM
same,TGI,RPMI-8226 leukemia,> 26.2 µM
same,TGI,RXF 393 renal,0.0493 µM
same,TGI,SF-268 CNS,> 100 µM
same,TGI,SF-295 CNS,4.66 µM
same,TGI,SF-539 CNS,2.55 µM
same,TGI,SK-MEL-2 melanoma,0.548 µM
same,TGI,SK-MEL-28 melanoma,0.966 µM
same,TGI,SN12C renal,9.62 µM
same,TGI,SNB-19 CNS,4.15 µM
same,TGI,SNB-75 CNS,1.24 µM
same,TGI,T-47D breast,8.25 µM
same,TGI,TK-10 renal,2.78 µM
same,TGI,U251 CNS,> 100 µM
same,TGI,UACC-257 melanoma,1.84 µM
same,TGI,UACC-62 melanoma,0.297 µM
same,TGI,UO-31 renal,0.454 µM
[N-]=[N+]=CC(=O)OC1CCOCC1,TGI,786-0 renal,> 100 µM
same,TGI,A498 renal,> 100 µM
same,TGI,ACHN renal,> 100 µM
same,TGI,BT-549 breast,> 100 µM
same,TGI,CAKI-1 renal,> 100 µM
same,TGI,CCRF-CEM leukemia,> 100 µM
same,TGI,COLO 205 colon,> 100 µM
same,TGI,DU-145 prostate,> 100 µM
same,TGI,EKVX NSCLC,> 100 µM
same,TGI,HCC-2998 colon,> 100 µM
same,TGI,HCT-116 colon,> 100 µM
same,TGI,HCT-15 colon,> 100 µM
same,TGI,HL-60(TB) leukemia,> 100 µM
same,TGI,HOP-62 NSCLC,> 100 µM
same,TGI,HOP-92 NSCLC,> 100 µM
same,TGI,HT29 colon,> 100 µM
same,TGI,IGROV1 ovarian,> 100 µM
same,TGI,K-562 leukemia,> 100 µM
same,TGI,KM12 colon,> 100 µM
same,TGI,LOX IMVI melanoma,> 100 µM
same,TGI,MALME-3M melanoma,> 100 µM
same,TGI,MCF7 breast,> 100 µM
same,TGI,MDA-MB-231 breast,> 100 µM
same,TGI,MDA-MB-435,> 100 µM
same,TGI,MDA-N,> 100 µM
same,TGI,MOLT-4 leukemia,> 100 µM
same,TGI,NCI-H226 lung,> 100 µM
same,TGI,NCI-H23 lung,> 100 µM
same,TGI,NCI-H460 lung,> 100 µM
same,TGI,NCI-H522 lung,> 100 µM
same,TGI,OVCAR-3 ovarian,> 100 µM
same,TGI,OVCAR-4 ovarian,> 100 µM
same,TGI,OVCAR-5 ovarian,> 100 µM
same,TGI,PC-3 prostate,> 100 µM
same,TGI,RPMI-8226 leukemia,> 100 µM
same,TGI,RXF 393 renal,> 100 µM
same,TGI,SF-268 CNS,> 100 µM
same,TGI,SF-295 CNS,> 100 µM
same,TGI,SK-MEL-2 melanoma,> 100 µM
same,TGI,SK-MEL-28 melanoma,> 100 µM
same,TGI,SK-MEL-5 melanoma,> 100 µM
same,TGI,SK-OV-3 ovarian,> 100 µM
same,TGI,SN12C renal,> 100 µM
same,TGI,SNB-19 CNS,> 100 µM
same,TGI,SR leukemia,> 100 µM
same,TGI,SW-620 colon,> 100 µM
same,TGI,TK-10 renal,> 100 µM
same,TGI,U251 CNS,> 100 µM
same,TGI,UACC-257 melanoma,> 100 µM
same,TGI,UACC-62 melanoma,> 100 µM
same,TGI,UO-31 renal,> 100 µM
CCOC(=O)c1csc(NC(=O)CN2CCN(c3ccccc3)CC2)n1,TGI,A498 renal,> 100 µM
same,TGI,A549 NSCLC,> 100 µM
same,TGI,ACHN renal,> 100 µM
same,TGI,CAKI-1 renal,> 100 µM
same,TGI,CCRF-CEM leukemia,> 100 µM
same,TGI,COLO 205 colon,> 100 µM
same,TGI,DU-145 prostate,> 100 µM
same,TGI,EKVX NSCLC,> 100 µM
same,TGI,HCC-2998 colon,> 100 µM
same,TGI,HCT-15 colon,> 100 µM
same,TGI,HL-60(TB) leukemia,> 100 µM
same,TGI,HOP-62 NSCLC,> 100 µM
same,TGI,HOP-92 NSCLC,> 100 µM
same,TGI,HT29 colon,> 100 µM
same,TGI,IGROV1 ovarian,> 100 µM
same,TGI,K-562 leukemia,> 100 µM
same,TGI,KM12 colon,> 100 µM
same,TGI,LOX IMVI melanoma,> 100 µM
same,TGI,M14 melanoma,> 100 µM
same,TGI,MALME-3M melanoma,> 100 µM
same,TGI,MCF7 breast,> 100 µM
same,TGI,MDA-MB-231 breast,> 100 µM
same,TGI,MDA-MB-435,> 100 µM
same,TGI,MDA-N,> 100 µM
same,TGI,MOLT-4 leukemia,> 100 µM
same,TGI,NCI-H226 lung,> 100 µM
same,TGI,NCI-H23 lung,> 100 µM
same,TGI,NCI-H460 lung,> 100 µM
same,TGI,NCI/ADR-RES ovarian,> 100 µM
same,TGI,OVCAR-3 ovarian,> 100 µM
same,TGI,OVCAR-4 ovarian,> 100 µM
same,TGI,OVCAR-5 ovarian,> 100 µM
same,TGI,OVCAR-8 ovarian,> 100 µM
same,TGI,PC-3 prostate,> 100 µM
same,TGI,RPMI-8226 leukemia,> 100 µM
same,TGI,RXF 393 renal,> 100 µM
same,TGI,SF-295 CNS,> 100 µM
same,TGI,SK-MEL-2 melanoma,> 100 µM
same,TGI,SK-MEL-28 melanoma,> 100 µM
same,TGI,SK-MEL-5 melanoma,> 100 µM
same,TGI,SK-OV-3 ovarian,> 100 µM
same,TGI,SNB-19 CNS,> 100 µM
same,TGI,SNB-75 CNS,> 100 µM
same,TGI,SR leukemia,> 100 µM
same,TGI,SW-620 colon,> 100 µM
same,TGI,T-47D breast,> 100 µM
same,TGI,TK-10 renal,> 100 µM
same,TGI,U251 CNS,> 100 µM
same,TGI,UACC-257 melanoma,> 100 µM
same,TGI,UACC-62 melanoma,> 100 µM
same,TGI,UO-31 renal,> 100 µM
